# According to patent US9271978B2 (Zenith Epigenetics Corp., priority 2012, dated 2016):
# Key:
# Parameters in all cases: key: Active: Compounds with an IC50 value less than 30 μM were deemed to be active.; Not Active: Compounds with an IC50 value less than 30 μM were deemed to be active
# [1] = tested on: human AML MV-4-11 (CRL-9591) cells; assay: Inhibition of cell proliferation in MV4-11 cells; assay type: cell-based; conditions: human AML MV-4-11 cells, 72 h; active = IC50 <30 μM
# Method: MV4-11 cells: 96-well plates were seeded with 5×10^4 cells per well of exponentially growing human AML MV-4-11 (CRL-9591) cells and immediately treated with two-fold dilutions of test compounds, ranging from 30 μM to 0.2 μM. Triplicate wells were used for each concentration, as well as a media only and three DMSO control wells. The cells and compounds were incubated at 37° C., 5% CO2 for 72 h before adding 20 μL of the CellTiter Aqueous One Solution (Promega) to each well and incubating at 37° C., 5% CO2 for an additional 3-4 h. The absorbance was taken at 490 nm in a spectrophotometer and the percentage of proliferation relative to DMSO-treated cells was calculated after correction from the blank well. IC50 were calculated using the GraphPad Prism software.
# [2] = biological target: T1, second bromodomain of Brd2 (BRD2(2)) (Homo sapiens, UniProt P25440); assay: Inhibition of tetra-acetylated histone H4 binding to Brd2 bromodomain 2 (TR-FRET); conditions: tetra-acetylated histone H4 peptide, active = IC50 <30 μM
# T1 construct: made in house; host or cells: E. coli BL21 (DE3)
# T1 sequence (P25440 344-453 limits assumed): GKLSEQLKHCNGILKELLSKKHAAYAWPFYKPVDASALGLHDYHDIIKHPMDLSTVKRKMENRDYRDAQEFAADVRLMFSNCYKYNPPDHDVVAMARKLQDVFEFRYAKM
# In short: (§1)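 IC50 values come from dose-response curves of the 665 nm to 620 nm TR-FRET signal decrease, measured after 2 h at room temperature. Reactions contained 200 nM E. coli-expressed His-tagged bromodomain, 25-50 nM biotinylated tetra-acetylated H4 peptide, Eu-streptavidin plus XL665 anti-His antibody, with 30 mM HEPES pH 7.4, 320 mM KF and 0.2% DMSO.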
# [3] = biological target: T2, Brd4 bromodomain 1 (BRD4(1)) (Homo sapiens, UniProt O60885); assay: Inhibition of tetra-acetylated histone H4 binding to Brd4 bromodomain 1 (TR-FRET); conditions: tetra-acetylated histone H4 peptide, active = IC50 <30 μM
# T2 construct: Illustrative results with the first bromodomain of Brd4; made in house; host or cells: E. coli BL21 (DE3)
# In short: as §1
# hIL-6 mRNA = assay: Inhibition of hIL-6 mRNA transcription in U937 cells; assay type: cell-based, human; conditions: LPS stimulation, active = IC50 <30 μM
# Method: In this example, hIL-6 mRNA in tissue culture cells was quantitated to measure the transcriptional inhibition of hIL-6 when treated with a compound of the present disclosure.
# A human leukemic monocyte lymphoma cell line (U937) was plated (3.2×10^4 cells per well) in a 96-well plate in […] RPMI-1640 containing 10% FBS and penicillin/streptomycin, and differentiated into macrophages for 3 days in 60 ng/mL PMA ([…]) at 37° C. in 5% CO2 prior to the addition of the compound of interest. The cells were pretreated for 1 h with the test compound prior to stimulation with 1 ug/mL lipopolysaccharide from Escherichia coli. The cells were incubated at 37° C. for 3 h before the cells were harvested. At time of harvest, the spent media was removed from the cells and the cells were rinsed in […] PBS. Cell lysis solution (70 μL) was added the cells in each well and incubated for 5-10 min at room temperature, to allow for complete cell lysis and detachment. mRNA was then prepared using the “mRNA Catcher PLUS plate” (Invitrogen), according to the protocol supplied. After the last wash, as much wash buffer as possible was aspirated without allowing the wells to dry. Elution buffer (E3, 70 μL) was then added to each well. mRNA was then eluted by incubating the mRNA Catcher PLUS plate with Elution Buffer for 5 min at 68° C. and then immediately placing the plate on ice.
# The eluted mRNA isolated was then used in a one-step quantitative real-time PCR reaction, using components of the Ultra Sense Kit together with Applied Biosystems primer-probe mixes. Real-time PCR data was analyzed, normalizing the Ct values for hIL-6 to an internal control, prior to determining the fold induction of each unknown sample, relative to the control.
# c-myc = assay: Inhibition of c-myc expression in MV4-11 cells (mRNA, real-time PCR); assay type: cell-based; conditions: Human AML MV4-11 cells, 3 h incubation
# Method: MV4-11 cells (2.5×10^4 cells) were plated in 96 well U-bottom plates with test compound or DMSO (0.1%), and incubated for 3 h at 37° C. Cells were then harvested by centrifugation, lysed, and mRNA was isolated using the mRNA catcher plus kit (Invitrogen). Reverse transcription of the mRNA and duplex amplification of the c-myc and cyclophilin cDNAs was performed using the RNA Ultrasense kit (Invitrogen) and a ViiA7 real-time PCR machine (Applied Biosystems). IC50 values were determined from a dose response curve.
Compound,Cell Proliferation activity (IC50 <30 μM) [1],FRET activity (IC50 <30 μM) BRD2(2) [2],FRET activity (IC50 <30 μM) BRD4(1) [3],IL-6 activity (IC50 <30 μM) (hIL-6 mRNA),c-myc activity (IC50 <30 μM) (c-myc)
"Cc1cccc(Cn2nc(-c3c(C)noc3C)ccc2=O)c1 [Example 30, 6-(3,5-Dimethylisoxazol-4-yl)-2-(3-methylbenzyl)pyridazin-3(2H)-one]",Active,Active,Active,Active,Not Active
"Cc1noc(C)c1-c1ccc(=O)n(C(C)c2ccccc2F)c1 (stereo not drawn) [Example 124, 5-(3,5-Dimethylisoxazol-4-yl)-1-(1-(2-fluorophenyl)ethyl)pyridin-2(1H)-one]",Active,Active,Active,Active,Active
"Cc1noc(C)c1-c1ccc(=O)n(Cc2ccccc2C(F)(F)F)n1 [Example 94, 6-(3,5-Dimethylisoxazol-4-yl)-2-(2-(trifluoromethyl)benzyl)pyridazin-3(2H)-one]",Active,Active,Active,Not Active,Not Active
"Cc1noc(C)c1-c1ccc(=O)n(Cc2ccsc2)n1 [Example 107, 6-(3,5-Dimethylisoxazol-4-yl)-2-(thiophen-3-ylmethyl)pyridazin-3(2H)-one]",Active,Active,Active,Active,Not Active
"Cc1noc(C)c1-c1ccc(=O)n(C(C)c2ccccc2F)n1 (stereo not drawn) [Example 95, 6-(3,5-Dimethylisoxazol-4-yl)-2-(1-(2-fluorophenyl)ethyl)pyridazin-3(2H)-one]",Not Active,Active,Active,Active,Not Active
"Cc1noc(C)c1-c1cc(Cl)c(=O)n(Cc2ccccc2)c1 [Example 64, 1-Benzyl-3-chloro-5-(3,5-dimethylisoxazol-4-yl)pyridin-2(1H)-one]",Active,Active,Active,Active,Active
"Cc1noc(C)c1-c1ccc(=O)n(Cc2cccc(C(F)(F)F)c2)c1 [Example 4, 5-(3,5-Dimethylisoxazol-4-yl)-1-(3-(trifluoromethyl)benzyl)pyridin-2(1H)-one]",Active,Active,Active,Active,Active
"Cc1cc(Cn2cc(-c3c(C)noc3C)cc(N)c2=O)c(C)s1 [Example 251, 3-amino-5-(3,5-dimethylisoxazol-4-yl)-1-((2,5-dimethylthiophen-3-yl)methyl)pyridin-2(1H)-one]",Active,,Active,Active,Active
"Cc1noc(C)c1-c1cc(N)c(=O)n(Cc2c[nH]c3ccccc23)c1 [Example 270, 1-((1H-indol-3-yl)methyl)-3-amino-5-(3,5-dimethylisoxazol-4-yl)pyridin-2(1H)-one]",Active,,Active,Active,Active
"Cc1noc(C)c1-c1cc(N)c(=O)n(Cc2cccc3ncccc23)c1 [Example 274, 3-amino-5-(3,5-dimethylisoxazol-4-yl)-1-(quinolin-5-ylmethyl)pyridin-2(1H)-one]",Active,,Active,Active,Active
"Cc1noc(C)c1-c1cc(N)c(=O)n(Cc2ccc(I)cc2)c1 [Example 267, 3-amino-5-(3,5-dimethylisoxazol-4-yl)-1-(4-iodobenzyl)pyridin-2(1H)-one]",Active,,Active,Active,Active
"Cc1noc(C)c1-c1cc(N)c(=O)n(Cc2ccc(Br)c(C#N)c2)c1 [Example 272, 5-((3-amino-5-(3,5-dimethylisoxazol-4-yl)-2-oxopyridin-1(2H)-yl)methyl)-2-bromobenzonitrile]",Active,,Active,Active,Active
"Cc1noc(C)c1-c1cc(N)c(=O)n(C(C)c2ccccc2)c1 (stereo not drawn) [Example 263, 3-amino-5-(3,5-dimethylisoxazol-4-yl)-1-(1-phenylethyl)pyridin-2(1H)-one]",Active,,Active,Active,Active
"Cc1noc(C)c1-c1cc(N)c(=O)n(Cc2ccc3c(c2)OCO3)c1 [Example 256, 3-amino-1-(benzo[d][1,3]dioxol-5-ylmethyl)-5-(3,5-dimethylisoxazol-4-yl)pyridin-2(1H)-one]",Active,,Active,Active,Active
"Cc1noc(C)c1-c1cc(Nc2ccccc2)c(=O)n(Cc2ccc(Cl)cc2)c1 [Example 188, 1-(4-chlorobenzyl)-5-(3,5-dimethylisoxazol-4-yl)-3-(phenylamino)pyridin-2(1H)-one]",Not Active,,Active,Active,Not Active
"COCc1noc(C)c1-c1ccc(=O)n(Cc2ccccc2)c1 [Example 187, 1-benzyl-5-(3-(methoxymethyl)-5-methylisoxazol-4-yl)pyridin-2(1H)-one]",Not Active,,Active,Not Active,Not Active
"Cc1noc(C)c1-c1cc(N)c(=O)n(Cc2ccc(C#N)c(Br)c2)c1 [Example 273, 4-((3-amino-5-(3,5-dimethylisoxazol-4-yl)-2-oxopyridin-1(2H)-yl)methyl)-2-bromobenzonitrile]",Active,,Active,Active,Active
